The record followed here is patent US20120283099A1, “CONTROLLING PLANTHOPPERS” (priority 2011, published 2012).

The assay relates to brown planthoppers, Nilaparvata lugens. Kind of assay: Field efficacy on brown planthopper in transplanted rice (small-plot trials A-D). The note with it: Sulfoxaflor 50 g/ha, Buprofezin 100 g/ha, mixture 50 + 100 g/ha. The class given is in vivo. The method, then: Applications were made to transplanted rice, Oryza sativa, using small-plot efficacy methods. Chemicals were diluted in water and all treatments were applied using a backpack sprayer calibrated to deliver 500 liters of spray solution per hectare. Experimental plots measured 5 by 10 meters and each treatment was replicated three times in each trial. At the specified intervals after treatment, brown planthoppers, Nilaparvata lugens, were counted in 10 randomly selected hills per plot. Data were transformed to percent control relative to the untreated plots, then subjected to analysis of variance, and means were separated using Tukey's HSD (p=0.1). Expected control was calculated using the method of Colby and compared to observed control. See the Table Section for the results of the Field Trials.

[1] abbreviates: Trial A, 1 DAT, relative to untreated plots.

Where “and” joins values, the source holds several entries; their conditions need not be identical. Identical values can stand only once.

In the case of `CC(C)N1C(=O)N(c2ccccc2)CS/C1=N\C(C)(C)C` [Buprofezin], the “% Control” value by setting is: under setting [1], 34.9 a % and 34.9%; (Trial A, 3 DAT) 72.4 b % and 72.4%; (Trial A, 7 DAT) 72.4 b % and 72.4%; (Trial A, 10 DAT) 49.4 b % and 49.4%; (Trial A, 15 DAT) 49.0 b % and 49.0%; (Trial B, 1 DAT) 24.5 a % and 24.5%. In addition, the “% Control” value was 73.0 b % and 73.0% (Trial B, 3 DAT); 80.2 b % and 80.2% (Trial B, 7 DAT); 63.2 b % and 63.2% (Trial B, 10 DAT); 67.7 b % and 67.7% (Trial B, 15 DAT); 31.2 ab % and 31.2% (Trial C, 1 DAT); 63.2 b % and 63.2% (Trial C, 3 DAT). For the same compound, the “% Control” value was 61.2 b % and 61.2% (Trial C, 7 DAT); 31.2 b % and 31.2% (Trial C, 10 DAT); 47.8 b % and 47.8% (Trial C, 15 DAT); 78.2 b % and 78.2% (Trial D, 1 DAT); 66.0 b % and 66.0% (Trial D, 7 DAT); 34.0 c % and 34.0% (Trial D, 10 DAT). For the same compound, the “% Control” value (Trial D, 15 DAT) was 47.6 b % and 47.6%.

`CC(c1ccc(C(F)(F)F)nc1)S(C)(=O)=NC#N` (centres unmarked) [Sulfoxaflor]: the “% Control” value under setting [1] is 11.2 b % and 11.2%; the “% Control” value (Trial A, 3 DAT) is 43.5 c % and 43.5%; the “% Control” value (Trial A, 7 DAT) was 32.8 c % and 32.8%; the “% Control” value (Trial A, 10 DAT) was 6.8 c % and 6.9%; the “% Control” value (Trial A, 15 DAT) is 19.3 c % and 19.3%; the “% Control” value (Trial B, 1 DAT) is 29.4 a % and 29.4%. For the same compound, the “% Control” value is 63.6 b % and 63.6% (Trial B, 3 DAT); 62.8 c % and 62.8% (Trial B, 7 DAT); 48.8 b % and 48.8% (Trial B, 10 DAT); 50.3 c % and 50.3% (Trial B, 15 DAT); 13.5 bc % and 13.5% (Trial C, 1 DAT); 42.4 c % and 42.2% (Trial C, 3 DAT). Further, the “% Control” value by setting is: (Trial C, 7 DAT) 57.9 b % and 57.9%; (Trial C, 10 DAT) 9.6 b % and 9.6%; (Trial C, 15 DAT) 30.1 c % and 30.1%; (Trial D, 1 DAT) 71.4 b % and 71.4%; (Trial D, 7 DAT) 72.9 b % and 72.9%; (Trial D, 10 DAT) 57.5 b % and 57.5%. Further, the “% Control” value (Trial D, 15 DAT) was 51.9 b % and 51.9%.
